In US20100210836A1, “SMALL MOLECULE INHIBITORS OF LYMPHOID TYROSINE PHOSPHATASE” (University of Southern California, priority 2009, published 2010) one finds PEST_LYP and IC50 data, which are given here for 14 compounds.

SMILES strings stand for the structures. pIC50: −log10 of the molar value.

The pIC50 is the IC50 on a negative log10 scale, so that one unit is a factor of ten.

One experiment addresses T1, LYP/PTPN22 (Homo sapiens, UniProt Q9Y2R2).
T1 construct: catalytic domains of LYP (aa 2-309) and PTP-PEST (aa 2-323, PEST); 6xHis (N, cleaved yes); made in house; host or cells: E. coli BL21
T1 sequence (Q9Y2R2 2-309): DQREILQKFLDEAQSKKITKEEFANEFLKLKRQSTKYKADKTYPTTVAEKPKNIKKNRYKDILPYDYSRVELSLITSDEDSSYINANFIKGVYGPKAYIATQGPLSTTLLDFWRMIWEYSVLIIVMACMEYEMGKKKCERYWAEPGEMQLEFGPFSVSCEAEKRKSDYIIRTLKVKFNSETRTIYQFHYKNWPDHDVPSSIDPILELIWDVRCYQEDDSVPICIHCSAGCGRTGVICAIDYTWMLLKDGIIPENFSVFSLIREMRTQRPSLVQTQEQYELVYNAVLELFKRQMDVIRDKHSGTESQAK
The experiment can be described thus: biochemical.
Details: not given
In turn, `Cc1cc(C)c2cc(C(c3nnnn3C3CCCC3)N3CCCC4(CCCCC4)C3)c(=O)[nH]c2c1` (stereo not drawn) [compound 10] yielded a PEST_LYP of 1.44.

`COc1ccc2cc(C(c3nnnn3C3CCCC3)N3CCCC4(CCCCC4)C3)c(=O)[nH]c2c1` (stereo not drawn) [compound 26]: the PEST_LYP was 1.74.

Take `Cc1cccc2cc(C(c3nnnn3C3CCCC3)N3CCCC4(CCCCC4)C3)c(=O)[nH]c12` (stereo not drawn) [compound 22]: the PEST_LYP was 1.34.

In turn, `Cc1ccc2cc(C(c3nnnn3C3CCCC3)N3CCCC4(CCCCC4)C3)c(=O)[nH]c2c1C` (stereo not drawn) [compound 13] returned a PEST_LYP of 1.33.

For the compound `Cc1ccc2cc(C(c3nnnn3C3CCCC3)N3CCN(C(c4ccccc4)c4ccccc4)CC3)c(=O)[nH]c2c1C` (stereo not drawn) [compound 6], the PEST_LYP was 1.07.

In turn, `Cc1ccc2[nH]c(=O)c([C@H](c3nnnn3C3CCCC3)N3CCC(C)CC3)cc2c1` [compound 32] displayed a PEST_LYP of 1.52.

Consider `Cc1cc(C)c2[nH]c(=O)c(C(c3nnnn3C3CCCC3)N3CCN(C(c4ccccc4)c4ccccc4)CC3)cc2c1` (stereo not drawn) [compound 8], for which the PEST_LYP was determined as 0.98.

The compound `Cc1ccc2cc(C(c3nnnn3C3CCCC3)N(Cc3ccccc3)Cc3ccc(C(C)C)cc3)c(=O)[nH]c2c1` (stereo not drawn) [compound 4] gave a PEST_LYP of 1.31.

Still in this experiment, the particulars now being: LYP IC50.
With `Cc1cc(C)c2cc(C(c3nnnn3C3CCCC3)N3CCCC4(CCCCC4)C3)c(=O)[nH]c2c1` (stereo not drawn) [compound 10], the pIC50 was 4.95.

The compound `COc1ccc2cc(C(c3nnnn3C3CCCC3)N3CCCC4(CCCCC4)C3)c(=O)[nH]c2c1` (stereo not drawn) [compound 26] had a pIC50 of 4.74.

In turn, `Cc1cccc2cc(C(c3nnnn3C3CCCC3)N3CCCC4(CCCCC4)C3)c(=O)[nH]c12` (stereo not drawn) [compound 22] showed a pIC50 of 4.80.

`Cc1ccc2cc(C(c3nnnn3C3CCCC3)N3CCCC4(CCCCC4)C3)c(=O)[nH]c2c1C` (stereo not drawn) [compound 13] showed a pIC50 of 4.92.

The compound `Cc1ccc2cc(C(c3nnnn3C3CCCC3)N3CCN(C(c4ccccc4)c4ccccc4)CC3)c(=O)[nH]c2c1C` (stereo not drawn) [compound 6] gave a negative logarithm of the IC50 (pIC50) of 5.04.

In the case of `Cc1ccc2[nH]c(=O)c([C@H](c3nnnn3C3CCCC3)N3CCC(C)CC3)cc2c1` [compound 32], the pIC50 was 4.69.

`Cc1cc(C)c2[nH]c(=O)c(C(c3nnnn3C3CCCC3)N3CCN(C(c4ccccc4)c4ccccc4)CC3)cc2c1` (stereo not drawn) [compound 8]: the pIC50 is 5.01.

On to `Cc1ccc2cc(C(c3nnnn3C3CCCC3)N(Cc3ccccc3)Cc3ccc(C(C)C)cc3)c(=O)[nH]c2c1` (stereo not drawn) [compound 4], for which the pIC50 was 5.12.

The experiment is the same for the next values; noted with them: LYP IC50, Table IV, analogues of E3P13.
The compound `CCC(C)(C)n1nnnc1[C@@H](c1cc2ccc(OC)cc2[nH]c1=O)N1CCCC2(CCCCC2)C1` [compound 35] gave a pIC50 of 4.65.

In the case of `Cc1ccc2[nH]c(=O)c([C@H](c3nnnn3C3CCCC3)N3CCN(c4nc5ccccc5[nH]4)CC3)cc2c1` [compound 38], the pIC50 is 4.52.

`CCC(C)(C)n1nnnc1[C@@H](c1cc2cccc(C)c2[nH]c1=O)N1CCCC2(CCCCC2)C1` [compound 18] gave a pIC50 of 4.87.

`Cc1cc(C)c2cc([C@H](c3nnnn3C(C)(C)C)N3CCCC4(CCCCC4)C3)c(=O)[nH]c2c1` [compound 28] gave a pIC50 of 4.71.

Consider `CCC(C)(C)n1nnnc1[C@@H](c1cc2cc(C)cc(C)c2[nH]c1=O)N1CCCC2(CCCCC2)C1` [compound 12], for which the pIC50 was 4.92.

With `Cc1cc(C)c2[nH]c(=O)c([C@H](c3nnnn3C(C)(C)C)N3CCCC4(CCCCC4)C3)cc2c1` [compound 19], the pIC50 is 4.87.

The same experiment, now with this note: selectivity, ratio PEST IC50 / LYP IC50, Table IV.
As to `CCC(C)(C)n1nnnc1[C@@H](c1cc2ccc(OC)cc2[nH]c1=O)N1CCCC2(CCCCC2)C1` [compound 35], the PEST_LYP is 1.33.

Regarding `Cc1ccc2[nH]c(=O)c([C@H](c3nnnn3C3CCCC3)N3CCN(c4nc5ccccc5[nH]4)CC3)cc2c1` [compound 38], the PEST_LYP is on record as 1.26.

On to `CCC(C)(C)n1nnnc1[C@@H](c1cc2cccc(C)c2[nH]c1=O)N1CCCC2(CCCCC2)C1` [compound 18], for which the PEST_LYP is recorded as 0.96.

In the case of `Cc1cc(C)c2cc([C@H](c3nnnn3C(C)(C)C)N3CCCC4(CCCCC4)C3)c(=O)[nH]c2c1` [compound 28], the PEST_LYP amounted to 1.33.

With `CCC(C)(C)n1nnnc1[C@@H](c1cc2cc(C)cc(C)c2[nH]c1=O)N1CCCC2(CCCCC2)C1` [compound 12], the PEST_LYP was 1.69.

With `Cc1cc(C)c2[nH]c(=O)c([C@H](c3nnnn3C(C)(C)C)N3CCCC4(CCCCC4)C3)cc2c1` [compound 19], the PEST_LYP is 2.27.

The next experiment deals with T2, PTP-PEST (Homo sapiens, UniProt Q05209).
T2 sequence (Q05209 2-323): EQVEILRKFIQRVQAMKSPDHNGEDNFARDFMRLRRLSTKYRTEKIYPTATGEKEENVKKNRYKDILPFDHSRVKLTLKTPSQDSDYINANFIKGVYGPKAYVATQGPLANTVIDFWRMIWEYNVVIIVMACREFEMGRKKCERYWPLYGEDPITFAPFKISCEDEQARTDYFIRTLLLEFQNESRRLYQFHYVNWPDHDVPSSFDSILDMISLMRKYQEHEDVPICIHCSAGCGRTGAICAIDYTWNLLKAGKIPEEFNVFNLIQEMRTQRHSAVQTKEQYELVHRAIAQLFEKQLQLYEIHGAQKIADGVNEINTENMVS
The experiment can be described thus: Counter-screen phosphatase assay PTP-PEST. The class given is biochemical. As to conditions: read-out: PEST IC50. In general terms: A counterscreen serves to expose hits that act by an unwanted route or on another target.
Consider `CCC(C)(C)n1nnnc1[C@@H](c1cc2ccc(OC)cc2[nH]c1=O)N1CCCC2(CCCCC2)C1` [compound 35], for which the pIC50 is 4.52.

With `Cc1ccc2[nH]c(=O)c([C@H](c3nnnn3C3CCCC3)N3CCN(c4nc5ccccc5[nH]4)CC3)cc2c1` [compound 38], the pIC50 is 4.41.

For the compound `Cc1cc(C)c2cc(C(c3nnnn3C3CCCC3)N3CCCC4(CCCCC4)C3)c(=O)[nH]c2c1` (stereo not drawn) [compound 10], the negative logarithm of the IC50 (pIC50) is 4.80.

`CCC(C)(C)n1nnnc1[C@@H](c1cc2cccc(C)c2[nH]c1=O)N1CCCC2(CCCCC2)C1` [compound 18]: the pIC50 was 4.89.

With `COc1ccc2cc(C(c3nnnn3C3CCCC3)N3CCCC4(CCCCC4)C3)c(=O)[nH]c2c1` (stereo not drawn) [compound 26], the pIC50 was 4.50.

Turning to `Cc1cccc2cc(C(c3nnnn3C3CCCC3)N3CCCC4(CCCCC4)C3)c(=O)[nH]c12` (stereo not drawn) [compound 22], the pIC50 is 4.67.

Turning to `Cc1cc(C)c2cc([C@H](c3nnnn3C(C)(C)C)N3CCCC4(CCCCC4)C3)c(=O)[nH]c2c1` [compound 28], the negative-log IC50 (pIC50) was 4.58.

As to `Cc1ccc2cc(C(c3nnnn3C3CCCC3)N3CCCC4(CCCCC4)C3)c(=O)[nH]c2c1C` (stereo not drawn) [compound 13], the pIC50 was 4.79.

Turning to `CCC(C)(C)n1nnnc1[C@@H](c1cc2cc(C)cc(C)c2[nH]c1=O)N1CCCC2(CCCCC2)C1` [compound 12], the pIC50 is 4.70.

With `Cc1cc(C)c2[nH]c(=O)c([C@H](c3nnnn3C(C)(C)C)N3CCCC4(CCCCC4)C3)cc2c1` [compound 19], the pIC50 is 4.51.

For the compound `Cc1ccc2cc(C(c3nnnn3C3CCCC3)N3CCN(C(c4ccccc4)c4ccccc4)CC3)c(=O)[nH]c2c1C` (stereo not drawn) [compound 6], the negative logarithm of the IC50 (pIC50) was 5.01.

Consider `Cc1ccc2[nH]c(=O)c([C@H](c3nnnn3C3CCCC3)N3CCC(C)CC3)cc2c1` [compound 32], for which the negative-log IC50 (pIC50) is 4.50.

For the compound `Cc1cc(C)c2[nH]c(=O)c(C(c3nnnn3C3CCCC3)N3CCN(C(c4ccccc4)c4ccccc4)CC3)cc2c1` (stereo not drawn) [compound 8], the pIC50 is 5.02.

In the case of `Cc1ccc2cc(C(c3nnnn3C3CCCC3)N(Cc3ccccc3)Cc3ccc(C(C)C)cc3)c(=O)[nH]c2c1` (stereo not drawn) [compound 4], the pIC50 is 5.00.
